Source: PMC6481345, “A novel anti-melanoma SRC-family kinase inhibitor” (Oncotarget, 2019)

Columns and labels:
pERK T202/Y204 = assay: Western blot, phospho-MEK and phospho-ERK; type: cell-based, human; settings: melanoma cells; 0.5 µM or 1 µM, 2-72 hours
Method: We used standard techniques to identify changes in intracellular signaling in response to various treatments. Briefly, melanoma cells were incubated with test compounds, using DMSO as a control, collected by scraping on ice, and lysed in RIPA buffer supplemented with protease and phosphatase inhibitors (MA #78428, and #78425, respectively, Thermo Fisher Scientific, Waltham, MA). Protein concentrations were measured with the BioRad kit (Bio-Rad Laboratories, Hercules, CA), SDS sample buffer was added, extracts were heated at 95°C, sonicated and centrifuged. Cell extracts (20 µg/lane) were fractionated in 3%–8% or 4–12 % tris-acetate gel (NP0006, NuPAGE Life Technologies). We probed with the following primary antibodies: phospho-SRC Tyr416 (CST #2101S), pSRC Tyr527 (#2105), SRC (#2108), pPI3K p85 Y458/p55 Y199 (#4228), LYN (C13F9, #2796), FYN (#4023), phospho-MEK1/2 pSer217/221 (#9121), MEK1/2, phospho-ERK2 pThr202/Tyr204 (#9101), ERK1/2 (#9107), phospho-p38 kinase T180/Y182 (#9216), p38 kinase (#9212), PP2A (#2259), pSHP2 Y542 (#3751), SHP2 (D50F2, #3397), ERBB2 (D8F12 XP(R), #4290), phospho-ERBB2 Y1196 (D66B7 #6942), MYC (D84C12, #5605); GAPDH (14C10, #2118), all from Cell Signaling Technology, Beverly, MA; phospho-PP2A Y307 (AF3989), and MITF (clone D5, #AF5769) from R&D Systems, Inc., Minneapolis, MN; p27KIP1 (#10241) and YES (#610375) from BD Biosciences, San Jose, CA; Cyclin D1 (#04-221) and β-actin (mouse mAb A5316) from MilliporeSigma, St. Louis, MO; PI3K Antibody (p85 alpha, NSJ R30480) from Bioreagents, 9921 Carmel Mountain Rd #352, San Diego, CA. All antibodies were used at the concentrations recommended by the manufacturers.

melanoma cells = assay: Apoptosis (annexin V staining and caspase activity); type: cell-based, human; settings: 0.5 µM and 1 µM, 24 hrs
Method: The rate of apoptosis was measured using the Dead Cell Apoptosis Kit with Alexa Fluor® 488 annexin V and propidium iodide (Invitrogen, V13241). Phosphatidylserine was visualized by flow cytometry following the manufacturer’s instructions. The assay was done in response to SAB298 (0.5 µM and 1 µM, 24 hrs), compared to DMSO (negative control) or camptothecin (10 µM), as a positive control. In addition, we used the 96-well colorimetric Caspase 3 Assay kit (Millipore Sigma) to measure caspase activity in response to increasing concentrations of SAB298, and western blotting for apoptotic markers, such as cleaved PARP. […]
www.oncotarget.com Oncotarget, Supplementary Materials
A novel anti-melanoma src-family kinase inhibitor
Supplementary Figure 1: Apoptosis in response to SAB298. […]
melanoma cells treated for 24 hrs with SAB298 (0.5 and 1 µM). (C) A bar plot showing the differential levels of annexin positive cells in response to SAB298. (D) Caspase activity in response to SAB298 of four different cell lines (YUSIV, YUSIK, YUGASP and YUSEEP).
(1 picture or pasted object on this page, not shown here)

[1] = test system: NBMEL normal human melanocytes; assay: CellTiter-Glo Luminescent Cell Viability Assay; type: cell-based; settings: Melanocyte, WT, 72 hrs
Method: SFK-inhibitors were tested on a panel of NCI-60 cell lines (Supplementary Table 1) and 30 melanoma cell lines and NBMEL, i.e., normal human melanocytes isolated from a newborn foreskin (Table 1 and Supplementary Table 2). The Yale melanoma cohort designated YU originated from tumors excised to improve patient quality of life and used with participants’ informed consent according to Health Insurance Portability and Accountability Act (HIPAA) regulations with Human Investigative Committee protocol.
The melanoma cells were grown in OptiMEM (Invitrogen, Carlsbad, CA) supplemented with 5% fetal calf serum and antibiotics. The normal human melanocytes (NBMEL) were grown in medium supplemented with bFGF, IBMX and dbcAMP [32]. Most of the Yale melanoma cell lines were characterized by next-generation sequencing (Supplementary Table 2).
Cell proliferation was measured with the CellTiter-Glo® Luminescent Cell Viability Assay (Promega Corporation, Madison, WI). Melanoma cells were seeded in 96-well plates in triplicate or quadruplet wells, with increasing concentrations of kinase inhibitors for 72 hrs. The rate of proliferation was also tested after knockdown of different SRC-family kinases (SFK) with hairpin lentivirus shRNA as indicated. […] The statistical significance of synergism of response to drug combinations was evaluated by following Chou and Talalay algorithm. […]

Nc1ncnc2c1c(-c1ccc(Oc3ccccc3)cc1)nn2C[C@@H]1SSC[C@@H]1O [SAB298, (3S, 4S)-3-((4-amino-3-(4-phenoxyphenyl)-1H-pyrazolo[3,4-d]pyrimidin-1-yl)methyl)-1,2-dithiolan-4-ol]
phospho-MEK and phospho-ERK (pERK T202/Y204) levels (pERK T202/Y204): increased, rather than decreased
Apoptosis (annexin staining and caspase activity) (melanoma cells): induced apoptosis
IC50 [1]: 0.968 µM
